Data published in article PMC3830731 (ACS chemical biology, 2013).

How the values were obtained:
MtmOIV [1] = target: T1, MtmOIV (Streptomyces argillaceus, UniProt Q194P4); test: X-ray crystal structure, […] Å; assay type: binding; conditions: non-covalently bound
MtmOIV [2] = target: T1, MtmOIV; test: NADPH oxidation, fluorescence; assay type: biochemical; conditions: 2 mM premithramycin B, 0.1 mM FAD, O2; 100 mM Tris-HCl pH 8.25, 30 °C
MtmOIV [3] = target: MtmOIV (Streptomyces argillaceus, UniProt Q194P4, R173A, form not given); test: NADPH oxidation, fluorescence; assay type: biochemical; conditions: 2 mM premithramycin B, 0.1 mM FAD, O2; 100 mM Tris-HCl pH 8.25, 30 °C

| Compound | X-ray crystal structure, 2.0 Å (MtmOIV [1]) | Km (MtmOIV [2]) [µM] | Km (MtmOIV [3]) [µM] |
| --- | --- | --- | --- |
| Cc1cc2nc3c(=O)[nH]c(=O)nc-3n(C[C@H](O)[C@H](O)[C@H](O)COP(=O)(O)OP(=O)(O)OC[C@H]3O[C@@H](n4cnc5c(N)ncnc54)[C@H](O)[C@@H]3O)c2cc1C [FAD] | a single non-covalently bound FAD cofactor | – | – |
| NC(=O)C1=CN([C@@H]2O[C@H](COP(=O)(O)OP(=O)(O)OC[C@H]3O[C@@H](n4cnc5c(N)ncnc54)[C@H](OP(=O)(O)O)[C@@H]3O)[C@@H](O)[C@H]2O)C=CC1 [NADPH] | – | 372 ± 68 | 528 ± 63 |
